Reference: patent US20230203025A1, “ENHANCERS OF PARTICULATE GUANYLYL CYCLASE RECEPTOR A” (Mayo Foundation for Medical Education and Research, priority 2020, published 2023)

Assays:
pGC-A = target: T1, pGC-A (Homo sapiens, UniProt P16066); test: cGMP production by HTRF in HEK293 cells overexpressing pGC-A; format: cell-based
T1 construct: expressed in transfected cells; host or cells: HEK293
T1 sequence (P16066 33-1061): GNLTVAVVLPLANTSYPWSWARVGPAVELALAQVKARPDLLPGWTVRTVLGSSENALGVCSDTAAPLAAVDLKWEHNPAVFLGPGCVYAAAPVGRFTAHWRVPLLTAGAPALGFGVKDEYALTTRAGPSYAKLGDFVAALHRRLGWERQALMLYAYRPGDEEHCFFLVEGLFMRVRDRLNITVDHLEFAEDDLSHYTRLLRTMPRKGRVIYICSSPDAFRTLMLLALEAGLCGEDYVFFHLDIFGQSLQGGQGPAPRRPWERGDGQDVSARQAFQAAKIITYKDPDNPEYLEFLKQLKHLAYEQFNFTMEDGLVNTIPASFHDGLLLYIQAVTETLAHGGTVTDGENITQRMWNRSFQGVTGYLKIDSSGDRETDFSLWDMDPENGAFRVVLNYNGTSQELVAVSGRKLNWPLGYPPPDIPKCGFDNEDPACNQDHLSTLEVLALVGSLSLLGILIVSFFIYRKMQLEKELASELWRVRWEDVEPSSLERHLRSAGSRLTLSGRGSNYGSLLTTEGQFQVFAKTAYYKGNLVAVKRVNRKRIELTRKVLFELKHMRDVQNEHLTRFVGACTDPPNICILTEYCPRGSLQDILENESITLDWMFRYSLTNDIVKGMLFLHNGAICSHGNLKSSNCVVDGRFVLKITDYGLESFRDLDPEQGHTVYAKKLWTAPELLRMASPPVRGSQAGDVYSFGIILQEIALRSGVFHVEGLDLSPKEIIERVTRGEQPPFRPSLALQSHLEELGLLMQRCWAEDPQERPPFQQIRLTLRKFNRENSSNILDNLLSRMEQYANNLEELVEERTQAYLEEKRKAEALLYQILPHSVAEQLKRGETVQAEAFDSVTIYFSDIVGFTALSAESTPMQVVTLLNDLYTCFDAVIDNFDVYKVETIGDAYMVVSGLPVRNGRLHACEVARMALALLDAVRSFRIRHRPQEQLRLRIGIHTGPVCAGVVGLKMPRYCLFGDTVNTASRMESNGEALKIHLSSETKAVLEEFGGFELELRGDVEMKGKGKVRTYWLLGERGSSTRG
T1 sequence (P01160 124-151 partner limits assumed): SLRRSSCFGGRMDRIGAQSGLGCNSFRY
Procedure: Assay details: 20 nL of 10 μM test compound in DMSO was added to columns 5-48 of 1536 well white high base screening plates (Corning, New York, N.Y.) cells using 550 ECHO acoustic dispenser (Labcyte, San Jose, Calif.). […] HEK293 cells overexpressing GC-A were resuspended in assay media (OptimMem media containing 2% Heat-inactivated Fetal bovine serum and L-glutamine) at a density of 6×10^5 cells/mL and 2 μL were plated in screening plates (1200 cells/well) in suspension using a Bioraptr 2. Plates were spun at 1000 rpm for 1 min and incubated for 30 min at room temperature. 1.5 μL d2-labled cGMP followed by 1.5 uL Eu^3+ cryptate-labeled anti-cGMP cGMP detection kit (CiBio; #62GM2PEC) prepared according to manufacturer's protocol were added to all wells using a Bioraptr 2 and TR-FRET signal was detected on an EnVision detector (PerkinElmer).

[1] = target: T2, extracellular domain human GC-A recombinant protein (Homo sapiens, UniProt P16066); test: SPR GC-A binding studies (Example 7); conditions: Compound 19 alone, His-tagged GC-A on Ni-NTA chip
T2 construct: extracellular domain human GC-A recombinant protein; purchased MyBioSource, Inc
T2 sequence (P16066 33-473 limits assumed): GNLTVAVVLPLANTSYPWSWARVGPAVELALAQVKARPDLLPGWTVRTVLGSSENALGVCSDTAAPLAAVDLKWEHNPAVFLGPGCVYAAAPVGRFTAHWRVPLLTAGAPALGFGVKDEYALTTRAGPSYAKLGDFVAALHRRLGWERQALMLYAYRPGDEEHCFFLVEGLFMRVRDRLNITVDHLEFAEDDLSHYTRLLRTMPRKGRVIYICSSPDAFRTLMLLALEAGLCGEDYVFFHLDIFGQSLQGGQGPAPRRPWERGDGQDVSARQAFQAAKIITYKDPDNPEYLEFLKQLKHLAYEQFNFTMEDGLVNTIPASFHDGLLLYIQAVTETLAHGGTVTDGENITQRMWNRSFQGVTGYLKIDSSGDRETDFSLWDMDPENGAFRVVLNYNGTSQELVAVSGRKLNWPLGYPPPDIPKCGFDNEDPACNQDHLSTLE
Procedure: Methods (GC-A Binding Studies): Surface plasmon resonance (SPR) measurements were performed at 25° C. on a BI-4500 SPR instrument (Biosensing Instrument Inc. Tempe AZ). […] Data was collected as sensorgrams. Binding kinetics were derived from sensorgrams using BI-Data Analysis Program (Biosensing Instrument, Tempe Ariz.).

LogD = format: physicochemical; conditions: pH 7.4
[2] = pharmacokinetics after IV and PO dosing; format: in vivo, mouse; conditions: plasma
[3] = test system: human visceral adipocytes; test: browning and glycerol production in human visceral adipocytes; format: cell-based
[4] = test system: primary human cardiomyocytes (HCMs); test: inhibition of TGF-beta 1 induced human cardiomyocyte hypertrophy; format: cell-based; conditions: TGF-β1 5 ng/mL
Procedure: Methods (Inhibition of Human Cardiac Hypertrophy In Vitro): primary human cardiomyocytes (HCMs) were grown in growth media to 50% confluence and then were subjected to serum starvation for 24 hrs. After that, 5 ng/mL of the cytokine TGFβ-1 (R&D Systems) was added to the media for 48 hrs to induce HCM hypertrophy. […] Normal cell buffer served as a vehicle only control, where TGFP-1 alone served as the positive control. Analysis for cell surface area (μm^2) was performed using the ImageJ software at the end of the study.
Results: to further support the cGMP generation in human primary cells leads to favorable biological GC-A mediated, the anti-hypertrophic effects were assessed of Compound 19 on live HCMs stressed with TGF-β1 (5 ng/mL), using a state-of-the-art live cell imaging platform (IncuCyte System).

With `CN(C)CCN1CCCC(C(=O)Nc2nc3c(F)cc(F)cc3s2)C1` (stereo not drawn) [Compound 19] the Emax (pGC-A; HEK293, cGMP normalized to maximal amount produced by an EC80 concentration of ANP, read-out: Max efficacy) was 82%, the EC50 (pGC-A; HEK293 pGC-A cells, cGMP HTRF, in the presence of EC20 concentration of ANP) was 390 nM and the “cGMP activity in cells expressing pGC-A” value (pGC-A; in the absence of ANP) was “devoid of cGMP activity”. For the same molecule, the Kd [1] was 390 nM, the logD (LogD) was 3.04 and the clearance ([2]; Mean IV, mouse, 5 mg/kg) was 20.3 mL/min/kg. It also gave a Vd ([2]; Mean IV, mouse, 5 mg/kg, read-out: Vdss) of 16.8 L/kg, a Cmax ([2]; Mean PO, Mouse, 10 mg/kg) of 605 ng/mL and a half-life ([2]; Mean PO, Mouse, 10 mg/kg) of 9.13 h. The AUC ([2]; Mean PO, Mouse, 10 mg/kg, read-out: Exposure (AUC)) was 7100 ng·h/mL, the bioavailability ([2]; Mouse, PO 10 mg/kg vs IV 5 mg/kg) was 107% and the “expression of the browning protein UCP1” value ([3]; compound 19 added to ANP) was “augmented UCPI expression”. The “ANP induction of glycerol” value ([3]; compound 19 with ANP, not illustrated) was “dose dependently increased”, the “inhibition of HCM hypertrophy” value ([4]; Compound 19 (1, 5, 10 μM) with ANP 10^−8 M) was “significant inhibition” and the “inhibition of HCM hypertrophy” value ([4]; Compound 19 (1, 5, 10 μM) with ANP 10^−10 M) was “significant inhibition”.
